Reference: publication PMC9820303, “^αN-Acetyl β-Endorphin Is an Endogenous Ligand of σ1Rs That Regulates Mu-Opioid Receptor Signaling by Exchanging G Proteins for σ2Rs in σ1R Oligomers” (International Journal of Molecular Sciences, 2022)

Key:
[1] = system: pMCAO in CD1 mice (wild-type and σ1R−/−); assay: Permanent unilateral middle cerebral artery occlusion (pMCAO), infarct size by TTC staining; assay type: in vivo, mouse
Protocol: Figure 1 ^αN-acetyl β-End 1–31 reduced ischemic brain damage and diminished seizures induced by NMDAR overactivation. Implication of σ1Rs. (A) ^αN-acetyl β-End 1–31 administration diminished ischemic brain damage in wild-type but not σ1R^−/− mice. Upper panel: representative 2,3,5-triphenyltetrazolium chloride (TTC)-stained brain section images obtained from saline- and drug-treated mice (3 nmol, 1 h after surgery) 48 h after pMCAO. White indicates infarction; red staining indicates normal tissue. Lower panel: the bar graphs quantitatively compare the infarct volume based on TTC staining from wild-type mice treated with saline, β-End 1–31 and the σ1R agonist PRE084 (white bars). The reducing effect of ^αN-acetyl β-End 1–31 was counteracted by β-End 1–31 and PRE084 (gray bars). In σ1R^−/− mice, the positive effect of ^αN-acetyl β-End 1–31 was not observed. […] Effects of PPCC, β-End 1–31 and ^αN-acetyl β-End 1–31 on seizures induced by NMDA in wild-type and σ1R^−/− mice. The mice received icv 1 nmol of the NMDAR agonist NMDA 30 min after the other drugs (3 nmol) and were then immediately evaluated. […] ANOVA followed by the Holm–Sidak multiple comparisons test, p < 0.05, 1-β > 0.80.
Focal cerebral ischemia was induced via pMCAO, as described previously. Briefly, mice were anesthetized and a vertical skin incision was made between the left eye and ear under a dissection microscope. After drilling a small hole in the cranium at the level of the distal portion of the middle cerebral artery, the artery was occluded by cauterization. Flow obstruction was visually verified. Animals showing subdural haemorrhages or signs of incorrect surgery were immediately excluded from the study (<5% in each group). The mice were returned to their cages after surgery, kept at room temperature, and allowed food and water ad libitum. Strong lesion reproducibility was observed. […] The investigator performing the pMCAO surgery was blinded to the treatment group. To determine the infarct size 48 h after surgery, animals were euthanized and their brains were removed, after which six 1 mm thick coronal brain slices (Brain Matrix, WPI, UK) were obtained. The sections were stained with 2,3,5-triphenyltetrazolium chloride (1% TTC, Merck-Sigma). Samples were taken from each side of all brain sections with a digital camera (Nikon Coolpix 990, Tokyo, Japan), and the extent of unstained infarct area (expressed in mm^2) was integrated from the total area as an orthogonal projection.

MOR = assay: Coprecipitation of G proteins, σ2Rs and NMDAR NR1 C1 with PAG MORs after icv injection; assay type: in vivo, mouse; details: 60 min post-treatment; for effect on association of PAG MOR with G proteins, σ2Rs and NR1 C1: icv: β-End 1–31 5 pmol, ^αN-acetyl β-End 1–31 5 pmol, S1RA 3 nmol, n = 3
Source text: The data from σ2R^−/− solubilized cortical tissue were referred to the wild-type control (arbitrary value of 1). […] For each Gα subunit and the σ1R, the immunosignals in the absence of the acetylated peptide were the controls (C, value of 1). […] (D) Coprecipitation of G proteins with MORs in CD1 wild-type and σ2R^−/− mice. MORs were immunoprecipitated (IP) from mouse SBM. Coprecipitated proteins were detached from MORs and analyzed by Western blotting with antibodies directed to Gαi2, Gαo, Gαz and MOR proteins. (E) Effect of in vivo icv injection of β-End 1–31, ^αN-acetyl β-End 1–31 and S1RA on the association of PAG MORs with G proteins, σ2Rs and NMDAR NR1 C1 subunits. β-End 1–31 (5 pmol), ^αN-acetyl β-End 1–31 (5 pmol) and S1RA (3 nmol and 10 nmol) were icv-injected, and the mice were sacrificed 60 min post-treatment to obtain the PAG synaptosomal fraction. The MORs were immunoprecipitated from the solubilized membrane preparations, and the coprecipitated target proteins were analyzed by Western blotting. […] Representative blots are shown. The immunosignal provided by the light chain of the affinity-purified anti MOR IgGs was used as SDS-PAGE loading control. […] Data were analyzed by pairwise Holm–Sidak multiple comparison tests following ANOVA: p < 0.05, 1-β > 0.80.
In immunoprecipitation studies, the cerebral cortices or periaqueductal grey matter (PAG) from 4–6 mice are typically pooled, as described previously [89]. […] The software automatically calculates the optimal exposure time for each of the areas specified to provide the strongest possible signal for accurate quantification of the sample. Protein immunosignals were measured using the area of the strongest signal for each group of samples studied (average optical density of the pixels within the object area/mm^2; AlphaEase FC software); the grey values of the means were then normalized within the 8 bit/256 grey levels [(256 − computed value)/computed value].

MORs = details: tritiated naloxone and morphine, mouse brain synaptosomes; cited from earlier work
Source text: (§1) ^αN-acetyl β-End 1–31 prevented or alleviated a series of negative symptoms in animals, such as the brain injury caused by pMCAO, the convulsive syndrome promoted by icv-injection of NMDA, and mechanical allodynia caused by unilateral sciatic nerve CCI.

[2] = system: [^125I]-Tyr^27 β-End 1–31 binding site (probably the σ1R site); details: 5 pM [125I]-Tyr27 β-End 1–31; cited from earlier work
Source text: as §1

σ1R oligomers-σ2R = molecular target: T1, σ1R oligomers-σ2R (Mus musculus, UniProt O55242); assay: Ex vivo fishing assay: σ1R and σ2R of mouse cerebral cortex bound to agarose-σ1R oligomers; assay type: biochemical; details: wild-type mouse cerebral cortex SBM; n = 3
T1 construct: The coding region of the full-length murine σ1R (AF004927); GST (N); made in house; host or cells: E. coli BL21 (KRX) for the σ1R bait; σ2R and further σ1R come from solubilised mouse cerebral cortex synaptosomes
Protocol: (B) Θ-σ1R captured G proteins in CD1 wild-type and σ2R^−/− SBM. Ex vivo fishing assays were performed as described in Figure 4C. The data from σ2R^−/− solubilized cortical tissue were referred to the wild-type control (arbitrary value of 1). (C) The σ1R oligomers captured G proteins from σ2R^−/− mouse SBM. For each Gα subunit and the σ1R, the immunosignals in the absence of the acetylated peptide were the controls (C, value of 1). […] (A,B,D,E) Data are the mean ± SD, n = 3. Data were analyzed by pairwise Holm–Sidak multiple comparison tests following ANOVA: p < 0.05, 1-β > 0.80.
For fishing studies, solubilization of neural synaptosomes from cerebral cortices or PAG was carried out at 4 °C in RIPA buffer. The membranes were incubated at 4 °C for 16 h with agitation, and then centrifuged at 10,000× g for 5 min. The supernatant was cleared with 20 μL of Sepharose 4B (#17-0120-01, GE Healthcare) pre-equilibrated for 1 h at 4 °C, followed by centrifugation at 4300× g for 5 min. The σ1R was immobilized through covalent attachment to N-Hydroxysuccinimide (NHS)-activated Sepharose 4 fast flow (4FF, #17-0906-01; GE) according to the manufacturer’s instructions. […]

[3] = system: CD1 mice (wild-type and σ1R−/−); details: single icv dose; cited from earlier work

T1 sequence (O55242 whole entry): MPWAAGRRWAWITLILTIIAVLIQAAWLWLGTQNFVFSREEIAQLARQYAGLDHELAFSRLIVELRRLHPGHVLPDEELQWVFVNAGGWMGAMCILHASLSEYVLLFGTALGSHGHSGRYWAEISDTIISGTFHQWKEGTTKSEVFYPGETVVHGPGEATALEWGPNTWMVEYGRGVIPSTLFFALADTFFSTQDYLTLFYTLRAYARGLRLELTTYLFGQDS
MOR, sequence (P42866 whole entry): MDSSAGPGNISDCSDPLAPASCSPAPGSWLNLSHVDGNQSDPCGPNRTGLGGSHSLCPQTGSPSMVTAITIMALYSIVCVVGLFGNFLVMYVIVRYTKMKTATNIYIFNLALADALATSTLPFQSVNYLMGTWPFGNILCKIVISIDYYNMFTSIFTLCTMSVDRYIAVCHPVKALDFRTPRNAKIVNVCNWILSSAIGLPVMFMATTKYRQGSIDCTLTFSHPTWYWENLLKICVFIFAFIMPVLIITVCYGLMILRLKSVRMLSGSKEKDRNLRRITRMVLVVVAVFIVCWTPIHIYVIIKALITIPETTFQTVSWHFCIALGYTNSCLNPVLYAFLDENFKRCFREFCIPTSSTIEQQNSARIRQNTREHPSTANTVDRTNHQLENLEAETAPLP

| Molecule | effect on the neuroprotection provided by ^αN-acetyl β-End 1–31 ([1]; given with ^αN-acetyl β-End 1–31 (3 nmol icv), wild-type mice) | effect on infarct volume, given alone ([1]; icv 60 min postsurgery (3 nmol), 48 h after pMCAO, wild-type mice) | effect on association of PAG MOR with G proteins and σ2Rs, 10 nmol (MOR; 10 nmol icv) | effect on association of PAG MOR with G proteins, σ2Rs and NR1 C1 (MOR) | affinity to MORs (MORs) | fraction of [^125I]-Tyr^27 β-End 1–31 specific binding abolished [2] | effect on σ1R oligomerization and σ2R presence at the agarose-σ1R bait (σ1R oligomers-σ2R) | duration of the effect of a single dose on analgesia [3] | infarct volume ([1]; 3 nmol icv 60 min postsurgery, 48 h after pMCAO, wild-type mice, mean ± SD, 5 to 8 mice, SD) | reduction in the infarct size ([1]; 3 nmol icv 60 min postsurgery, 48 h after pMCAO, wild-type mice, untreated infarct 5.4 ± 1.2% of total brain volume) | protective effect on pMCAO-produced ischemia in σ1R−/− mice ([1]; σ1R−/− mice, 3 nmol icv) |
| --- | --- | --- | --- | --- | --- | --- | --- | --- | --- | --- | --- |
| Cl.O=C(OCCN1CCOCC1)C1(c2ccccc2)CCCCC1 [PRE084, 2-(4-morpholinethyl)-1-phenylcyclohexanecarboxylate hydrochloride, reference compound] | prevented the neuroprotection | did not alter the extent of infarct volume | – | – | – | – | – | – | – | – | – |
| Cc1cc(OCCN2CCOCC2)nn1-c1ccc2ccccc2c1 [S1RA] | – | – | increased MOR association with Gi2/o and σ2Rs | slightly reproduced | – | – | – | – | – | – | – |
| ^αN-acetyl β-End 1–31: β-End 1–31 acetylated at N terminal Y1, α position | – | – | – | slightly reproduced | μM range | 20–30% | reduces the extent of σ1R oligomerization, and increases the association of σ2Rs with the bait | 24 h | 1.2 ± 0.9 % of the total brain volume | ~80% | did not exhibit protective effects |
